Experimental findings from ChEMBL document CHEMBL3421552, “Penicitols A-C and penixanacid A from the mangrove-derived Penicillium chrysogenum HDN11-24” (J Nat Prod, 2015) are described below.

For one assay, the system named is HeLa. In words: Cytotoxic activity against human HeLa cells by MTT method. Type of assay: functional, cell-based. In general terms: Tetrazolium dyes change colour on reduction, which living cells bring about.
Assay [1] can be described thus: Cytotoxic activity against human Bel7402 cells by MTT method. Conditions: Bel-7402.
In another assay the test system is HEK293. In words: Cytotoxic activity against human HEK293 cells by SRB method. Type of assay: cell-based. For orientation: In SRB staining, fixed cells bind dye roughly in proportion to their protein.
Assay [2] can be described thus: Cytotoxic activity against human HCT116 cells by SRB method. Type of assay: functional, cell-based. As to conditions: HCT-116.
A further assay deals with A549. In words: Cytotoxic activity against human A549 cells by SRB method.

For `COC(=O)c1ccc2c(=O)c3cc(O)cc(C(=O)O)c3oc2c1O`, the IC50 (usually the concentration that gives 50% inhibition) in the assay on HeLa was determined as 10 µM; in assay [1] it was 30.6 µM; in the assay with HEK293, 28.5 µM; in assay [2], 19 µM; in the assay with A549 it was 16.9 µM.
For `COc1cccc2c1C(=O)c1c(O)c3c(c(O)c1C2=O)C[C@@](O)(C(=O)CO)C[C@@H]3O[C@H]1C[C@H](N)[C@H](O)[C@H](C)O1` [DOXORUBICIN], the IC50 was determined as 0.5 µM in the assay on HeLa, 0.04 µM with HEK293 and 0.2 µM in assay [2].
Take `CO[C@H]1CCc2oc(=O)c3c(O)cc(C)cc3c21`: the IC50 in the assay on HeLa stood at 12.6 µM; in assay [1] it was 40.5 µM; with HEK293 it was 31.4 µM; in assay [2], 22.5 µM; in the assay with A549 it was 10.8 µM.
Taken in the same sequence, the figures for `Cc1c(O)c(O)c(Oc2cc(O)c(C)c3c2C(=O)O[C@H](C)[C@H]3C)c2c1[C@H](C)[C@@H](C)O2` were 3.4 µM, 7 µM, 6.4 µM, 3.5 µM and 9.6 µM.
In the same order, the values of `CO[C@]12CCCC[C@H]1[C@H]1O[C@H](C)[C@@H](C)c3c(O)c(O)cc(c31)O2` are 4.6 µM, 10.5 µM, 6.7 µM, 5.6 µM and 7.6 µM.
Taken in the same sequence, the figures for `CO[C@]1(C)C[C@H]2O[C@H](C)[C@@H](C)c3c(C)c(O)cc(c32)O1` were 45 µM, 46.6 µM, 32.6 µM, greater than 50 µM and greater than 50 µM.
For `CO[C@@]1(C)C[C@H]2O[C@H](C)[C@@H](C)c3c(C)c(O)cc(c32)O1`, the IC50 with HeLa is 35.5 µM; in assay [1], greater than 50 µM; with HEK293, 42.5 µM; in assay [2], greater than 50 µM; in the assay on A549, greater than 50 µM.
